The target of data set [1] is T1, trypsin-like activity of the proteasome (Mus musculus, UniProt P70195).
T1 construct: endogenous in cells; host or cells: YAMC cell lysates
T1 sequence (P70195 44-277): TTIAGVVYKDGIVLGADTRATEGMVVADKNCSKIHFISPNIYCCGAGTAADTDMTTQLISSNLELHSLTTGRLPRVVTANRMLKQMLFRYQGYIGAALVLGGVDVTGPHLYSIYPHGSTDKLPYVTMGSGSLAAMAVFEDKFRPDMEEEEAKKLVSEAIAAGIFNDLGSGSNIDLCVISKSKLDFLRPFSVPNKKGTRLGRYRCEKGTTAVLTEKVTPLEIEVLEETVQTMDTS
Nature of the data set: Proteasome assay on YAMC cell lysates, substrate Bz-val-gly-arg-AMC. Type of data set: cell-based. The settings on record: VSL#3-CM 16 hours; lactacystin 10 μM.

Data set [2] deals with T2, PGPH, or caspase-like, activity of the proteasome (Mus musculus, UniProt Q60692).
T2 construct: endogenous in cells; host or cells: YAMC cell lysates
T2 sequence (Q60692 1-238): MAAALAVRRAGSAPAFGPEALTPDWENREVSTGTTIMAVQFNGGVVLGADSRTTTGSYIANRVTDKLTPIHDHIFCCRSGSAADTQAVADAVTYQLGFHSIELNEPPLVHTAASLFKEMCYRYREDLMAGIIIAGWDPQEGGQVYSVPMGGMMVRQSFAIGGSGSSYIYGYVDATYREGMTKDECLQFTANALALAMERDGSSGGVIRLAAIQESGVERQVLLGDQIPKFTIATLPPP
Description: Proteasome assay on YAMC cell lysates, substrate Z-leu-leu-glu-AMC. Type of data set: cell-based. Particulars: VSL#3-CM 16 hours, about equivalent to 10 μM lactacystin; lactacystin 10 μM.

The next data set relates to Hsp25 and Hsp72. Description: Immunoblot of Hsp25 and Hsp72 expression in YAMC cells. In kind it is cell-based, mouse. As to the method: Twenty micrograms of protein per lane were resolved on 12.5% SDS-PAGE and transferred in 1× Towbin buffer (composition 25 mM Tris, 192 mM glycine, pH 8.8, 15% vol/vol methanol) onto PVDF membranes (Polyscreen, Perkin-Elmer NEN, Boston, Mass.) as previously described (Kojima, 2003), incorporated herein by reference. Membranes were blocked in 5% (wt/vol) non-fat milk in TBS-Tween (Tris-buffered saline (150 mM NaCl, 5 mM KCl, 10 mM Tris, pH 7.4) with 0.05% (vol/vol) Tween 20) for one hour at room temperature. For anti-ubiquitin blots, membranes were blocked in 3% bovine serum albumin (Fisher, Pittsburgh, Pa.). Primary antibody was added to TBS-Tween and incubated overnight at 4° C. with a specific anti-Hsp 25 antibody (SPA 801, Stressgen, Victoria, BC, Canada), anti-Hsp 72 antibody (SPA 810, Stressgen), anti-Hsc 73 antibody (SPA 815, Stressgen), anti-IκB-α antibody (sc-1643, Santa Cruz Biotechnology, Santa Cruz, Calif.), anti-phospho IκB-α antibody (sc-8404, Santa Cruz), or anti-ubiquitin antibody (PW 8810, Affiniti Research Products Ltd, Exeter, U.K.). Blots were then washed in TBS-Tween five times for 10 minutes each at room temperature before incubation with peroxidase-conjugated secondary antibodies (Jackson Immunoresearch Labs, Inc. Fort Washington, Pa.) for 1 hour at room temperature. […]
For orientation: Immunoblotting shows a protein as a band on a membrane.

A further data set has as its system NF-κB. Description: NF-κB ELISA assay (Active Motif), TNF-α stimulation. In kind it is cell-based. Particulars: TNF-α 30 ng/ml. As to the method: The proteasome inhibitors in VSL#3 may be small organic molecules. Some proteasome inhibitors found in nature are small molecular weight organic esters or organic acid derivatives, such as those in green tea. An ether extraction of the VSL#3-CM was undertaken to determine if bioactive factors could be concentrated to produce a more consistent and robust response. […] TNF-α stimulation (30 ng/ml) alone caused a significant increase in NF-κB activation (second bar from left).

In data set [3] the target is T3, 20S proteasomal component (barrel) (Homo sapiens, UniProt P28074).
T3 construct: purchased Calbiochem
Description: In vitro 20S proteasome assay (Calbiochem). In kind it is biochemical. Particulars: 20S component, slopes compared. As to the method:
Proteasome activity from cell lysates was determined using a 20S Proteasome assay kit (Calbiochem, San Diego, Calif.). Briefly, ice-cold cell lysate containing 20 μg protein was added to proteasome assay reaction buffer (25 mm HEPES, 0.5 mM EDTA, pH 7.6) activated with 0.03% (wt/vol) SDS. The sample was allowed to come to room temperature, then placed in a quartz cuvette and 10 μM of the substrate suc-leu-leu-val-tyr-AMC (SLLVY-AMC), Bz-val-gly-arg-AMC, or Z-leu-leu-glu-AMC was added. The SLLVY-AMC substrate is cleaved by the chymotrypsin-like activity of the proteasome, the Bz-val-gly-arg-AMC substrate is cleaved by the trypsin-like activity of the proteasome, and the Z-leu-leu-glu-AMC substrate is cleaved by the PGPH, or caspase-like, activity of the proteasome. Proteasome activity was determined by measuring the fluorogenic signal generated by cleavage of AMC (7-amino-4-methylcoumarin) from the peptide moiety of the proteasome substrate. Fluorescence (excitation at 380 nm, emission at 460 nm) was measured every minute for the first 10 minutes, then every 15 minutes thereafter in a Hitachi F-2000 fluorometer (Hitachi, Japan). Cells were treated with either MG132 (25 μM) or lactacystin (10 μM) as a positive inhibitor control. Untreated cells were treated with DMSO as a vehicle control for MG132 and lactacystin. Experiments were performed in triplicate. […]

The next data set has as its system F/G actin. Nature of the data set: F/G actin assay, YAMC cells under oxidant stress. In kind it is cell-based, mouse. The settings on record: phalloidin 30 μg/ml 2 hours; cytochalasin D 10 μg/ml 15 min. On the procedure: F/G actin assays were conducted by initially shifting confluent YAMC cell monolayers to 37° C. in IFN-γ-free medium and treating with VSL#3-CM overnight. Prior to assessment, cells were treated with phalloidin (30 μg/ml for 2 hours; Molecular probes, Eugene, Oreg.), cytochalasin D (10 μg/ml for 15 min), or the oxidant monochloramine (0.6 mM for 30 minutes). Cells were rinsed in PBS, harvested, centrifuged (14,000×g for 20 seconds at room temperature) and the pellets resuspended in 200 μl of 30° C. lysis buffer (1 mM ATP, 50 mM PIPES, pH 6.9, 50 mM NaCl, 5 mM MgCl2, 5 mM EGTA, 5% (vol/vol) glycerol, 0.1% (vol/vol) Nonidet P-40, Tween 20, and Triton X-100, containing complete protease inhibitor cocktail). Cells were homogenized by gently pipetting up and down ten times and incubated at 30° C. for 10 minutes. Samples were centrifuged at 100,000×g for 60 minutes at 30° C. and the supernatants were removed for determination of G actin content. Pellets containing F-actin were resuspended in 200 μl of 4° C. distilled water with 1 μM cytochalasin D and left on ice for 60 minutes. Then, 20 μl of each extraction was removed, 6 μl 3× Laemmli stop solution was added and the samples were heated to 65° C. for 10 minutes. Samples were resolved by 12.5% SDS-PAGE and immediately transferred to PVDF membranes. […]

Starred links: 1 amine or outer side, 2 acyl side, 3 side chain; linkers in the order of their positions; H or OH if unused. Positions of bridges follow the written chain, without caps; N, C: chain ends. Non-standard residues stand in square brackets, D forms with d. Residues, ends and D or L forms follow the SMILES beside them. *: point of attachment. Trp(2-yl) = O=C([C@H](Cc1c([*:3])[nH]c2ccccc12)N[*:1])[*:2]; Leu(4R-OH,5-OH) = C[C@](O)(CO)C[C@H](N)C(=O)O; cisHyp = O=C(O)[C@@H]1C[C@H](O)CN1; Cbz = O=C(OCc1ccccc1)*

On to `CC(=O)N[C@@H](CSC(=O)[C@]1([C@@H](O)C(C)C)NC(=O)[C@H](C)[C@@H]1O)C(=O)O` [Lactacystin], for which, in data set [1], the “effect on trypsin-like activity of the proteasome” value is recorded as “inhibits”. Besides, in data set [2], the “effect on caspase-like activity of the proteasome” value is on record as “only a weak inhibitor”. Besides, in the data set on YAMC cells (concentrations higher than 10 μM), the “cell toxicity limiting usable concentration” value is “limited due to cell toxicity”.

On to `CC(C)C[C@@H](C=O)NC(=O)[C@H](CC(C)C)NC(=O)[C@H](CC(C)C)NC(=O)OCc1ccccc1` [MG132] (Cbz-Leu-Leu-Leu-aldehyde), for which the “appearance of Hsp signal” value in the data set on Hsp25 and Hsp72 (MG132 25 μM time course) is 7 to 14 h. In addition, the “induction of Hsp25 and Hsp72” value with Hsp25 and Hsp72 (MG132 25 μM, more robust than thermal stress) is given as “very strong induction”. For the same molecule, the “effect on TNF-α-stimulated NF-κB activity” value with NF-κB is listed as “significantly inhibited”. Besides, the “effect on in vitro proteasomal activity” value in data set [3] was “significant inhibition”. The “change in morphology and loss of cell viability” value in the data set on YAMC cells (16 hours, MG132 at 25 μM, phase-contrast photographs) is “dramatic change in morphology and loss of cell viability”. In addition, in the data set on YAMC cells (VSL#3-CM 24 hours of treatment, MG132 prolonged exposure), the “cell viability compared to untreated control cells” value is recorded as “markedly increased cell death”.

Consider `C=C1[C@@H](C)[C@H]2[C@H](Cc3ccccc3)NC(=O)[C@]23[C@H](OC(C)=O)/C=C/[C@@](C)(O)C(=O)[C@@H](C)C/C=C/[C@H]3[C@@H]1O` [cytochalasin D], for which, in the data set with F/G actin, the “effect on F- and G-actin, control agents” value is “greatly increases the amount of globular (G) actin”.

Consider `C[C@@H]1NC(=O)[C@H](C[C@@](C)(O)CO)NC(=O)[C@@H]2Cc3c([nH]c4ccccc34)SC[C@H](NC(=O)[C@@H]([C@H](C)O)NC1=O)C(=O)N1C[C@@H](O)C[C@H]1C(=O)N[C@@H](C)C(=O)N2` [phalloidin] (cyclo(A[dT]C[cisHyp]A[Trp(2-yl)][Leu(4R-OH,5-OH)]); thioether 3-6), for which the “effect on F- and G-actin, control agents” value with F/G actin was “increasing the amount of F-actin”.
